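A five-concentration, 48-hour dose response in 96-well plates underlies each endpoint, interpolated linearly between surrounding concentrations. GI50 is the concentration that inhibits growth by half.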 Calls of active or inactive are those of the source. Cut-off read from the data, not from the text of the source: active = GI50 up to about 1.1 µM and inactive = higher.
How the values were obtained:
Test in all cases: NCI anticancer screen, dose series, 48 h
[1] = test system: NCI-H460
[2] = test system: SNB-19
[3] = test system: SF-539
[4] = test system: HCC 2998
[5] = test system: CCRF-CEM
[6] = test system: SF-268
[7] = test system: NCI-H522
[8] = test system: HL-60
[9] = test system: SF-295
[10] = test system: COLO 205
[11] = test system: HOP-92
[12] = test system: SK-MEL-28
[13] = test system: RXF 393
[14] = test system: U-251
[15] = test system: HCT-15

Row | Structure (SMILES) | GI50 [1] | GI50 [2] | GI50 [3] | GI50 [4] | GI50 [5] | GI50 [6] | GI50 [7] | GI50 [8] | GI50 [9] | GI50 [10] | GI50 [11] | GI50 [12] | GI50 [13] | GI50 [14] | GI50 [15]
1 | Cc1cc(O)c2c(c1)OC1(C)CCC3C(C)(C)CCCC34COC2C14 (stereo not drawn) | 16.4 µM (inactive) | 18.3 µM (inactive) | 6.43 µM (inactive) | 14.7 µM (inactive) | 20 µM (inactive) | 13.6 µM (inactive) | 17.6 µM (inactive) | 16.6 µM (inactive) | 15.1 µM (inactive) | 14.4 µM (inactive) |  |  |  |  | 
2 | COc1ccc(-c2cc(-c3cc(C)ccc3O)nc(O)n2)cc1 | > 100 µM (inactive) | 47 µM (inactive) | 30.1 µM (inactive) | > 100 µM (inactive) | > 100 µM (inactive) | 80.9 µM (inactive) | 24.6 µM (inactive) | > 100 µM (inactive) | 41 µM (inactive) | > 100 µM (inactive) | 32.6 µM (inactive) | > 100 µM (inactive) | 32.6 µM (inactive) | 30.7 µM (inactive) | 
3 | C[C@]12CCCC(=O)C1C[C@H](C(=O)O)CC2 (stereo partly drawn) | > 100 µM (inactive) | > 100 µM (inactive) | > 100 µM (inactive) | > 100 µM (inactive) | > 100 µM (inactive) | > 100 µM (inactive) | > 100 µM (inactive) | > 100 µM (inactive) | > 100 µM (inactive) | > 100 µM (inactive) | > 100 µM (inactive) | > 100 µM (inactive) |  | > 100 µM (inactive) | > 100 µM
4 | Cn1cnc([N+](=O)[O-])c1Sc1nccn1-c1ccccc1 | 41.4 µM (inactive) | > 100 µM (inactive) | 68.2 µM (inactive) | > 100 µM (inactive) | 36.3 µM (inactive) | 66.5 µM (inactive) | 11.6 µM (inactive) |  | > 100 µM (inactive) | 33.9 µM (inactive) | 22.5 µM (inactive) | 37.8 µM (inactive) |  | 49.8 µM (inactive) | 
5 | CC1=C(C)C(=O)C2=C(OCCCO2)C1=O | > 10 µM (inactive) | > 100 µM (inactive) | > 10 µM (inactive) | 59.4 µM (inactive) | 2.43 µM (inactive) | 18.3 µM (inactive) | 18 µM (inactive) | 3.61 µM (inactive) | 29.1 µM (inactive) | 34.2 µM (inactive) |  | 35.6 µM (inactive) | > 10 µM (inactive) | > 100 µM (inactive) | > 100 µM
6 | Cc1cc2nc3c(C(OC4OC(CO)C(O)C(O)C4O)C(O)CO)nn(-c4ccccc4)c3nc2cc1C (stereo not drawn) | > 100 µM (inactive) | > 100 µM (inactive) | > 100 µM (inactive) | > 100 µM (inactive) | > 100 µM (inactive) | > 100 µM (inactive) | > 100 µM (inactive) |  | > 100 µM (inactive) |  |  | > 100 µM (inactive) | > 100 µM (inactive) | > 100 µM (inactive) | > 100 µM
7 | CCOc1ccc(/C=C(\Cl)c2ccc(OC)cc2)cc1 |  | > 100 µM (inactive) | > 100 µM (inactive) | > 100 µM (inactive) | > 100 µM (inactive) | > 100 µM (inactive) | > 100 µM (inactive) | 47.6 µM (inactive) | > 100 µM (inactive) | > 100 µM (inactive) | > 100 µM (inactive) | > 100 µM (inactive) | > 100 µM (inactive) | > 100 µM (inactive) | > 100 µM
8 | CCC(C)(C)NS(=O)(=O)c1ccccc1 | > 100 µM (inactive) |  | > 100 µM (inactive) | > 100 µM (inactive) | > 100 µM (inactive) |  |  | > 100 µM (inactive) | > 100 µM (inactive) |  |  | > 100 µM (inactive) | > 100 µM (inactive) | > 100 µM (inactive) | > 100 µM
9 | COc1ccc(NC(=O)C(=O)C2NC(=S)NC2=O)c(OC)c1 (stereo not drawn) | > 100 µM (inactive) | > 100 µM (inactive) | > 100 µM (inactive) | > 100 µM (inactive) | > 10 µM (inactive) | > 100 µM (inactive) |  | > 100 µM (inactive) | > 100 µM (inactive) | > 100 µM (inactive) | > 100 µM (inactive) | > 100 µM (inactive) | > 100 µM (inactive) | > 100 µM (inactive) | > 100 µM
10 | N#C/C(c1nc2ccccc2[nH]1)=c1\s/c(=C/c2ccccc2)c(=O)n1-c1ccccc1 | 65.2 µM (inactive) | > 100 µM (inactive) | > 100 µM (inactive) | > 100 µM (inactive) | 98.9 µM (inactive) | > 100 µM (inactive) | > 100 µM (inactive) | > 100 µM (inactive) |  | > 100 µM (inactive) | > 100 µM (inactive) | > 100 µM (inactive) |  | > 100 µM (inactive) | > 100 µM
11 | CCCCCCCCCCNC(=S)OCCCC | 21.9 µM (inactive) | 46.8 µM (inactive) | 21.7 µM (inactive) | 24.6 µM (inactive) | 17.1 µM (inactive) | 22.8 µM (inactive) | 18.6 µM (inactive) | 14.3 µM (inactive) | 45.4 µM (inactive) |  | 16.7 µM (inactive) | 25.8 µM (inactive) | 34.9 µM (inactive) | 19.5 µM (inactive) | 19.2 µM
12 | COc1cc(Br)c(CC2=NCCc3cc(OC)c(OC)cc32)cc1OC | 2.35 µM (inactive) | 48.8 µM (inactive) | 11.7 µM (inactive) | 16.4 µM (inactive) | 19.7 µM (inactive) | 51.2 µM (inactive) | 16.9 µM (inactive) | 2.33 µM (inactive) | 0.7 µM (active) | 14.1 µM (inactive) | 1.64 µM (inactive) | 19.7 µM (inactive) |  | 11.3 µM (inactive) | 31 µM
13 | COS(=O)(=O)OCCC(NC(=O)OCc1ccccc1)C(=O)OCc1ccccc1 (stereo not drawn) | > 100 µM (inactive) | > 100 µM (inactive) | > 100 µM (inactive) | 66.4 µM (inactive) | > 100 µM (inactive) | > 100 µM (inactive) | > 100 µM (inactive) | 53.3 µM (inactive) | > 100 µM (inactive) | > 100 µM (inactive) | > 100 µM (inactive) | > 100 µM (inactive) |  | > 100 µM (inactive) | > 100 µM
14 | CN(C)C(=S)/N=c1\ss/c(=N/c2ccccc2)n1C | > 100 µM (inactive) | 58.3 µM (inactive) | 22.7 µM (inactive) | > 100 µM (inactive) | > 100 µM (inactive) | 27.2 µM (inactive) |  | > 100 µM (inactive) | 75.9 µM (inactive) |  | 30.5 µM (inactive) | 64.3 µM (inactive) | 28.2 µM (inactive) | 46.7 µM (inactive) | > 100 µM
15 | O=[N+]([O-])c1ccc(OCCNc2cccc3ccccc23)cc1 | 77.6 µM (inactive) | > 100 µM (inactive) | > 100 µM (inactive) | 64.6 µM (inactive) | 38.2 µM (inactive) | > 100 µM (inactive) | > 100 µM (inactive) |  | > 100 µM (inactive) | > 100 µM (inactive) | 94.2 µM (inactive) | > 100 µM (inactive) |  | 94.6 µM (inactive) | 9.73 µM
16 | C[Si](C)(C)OC1(C#N)C2C3CC4C2C(=O)C2C4C3C21 (stereo not drawn) | > 100 µM (inactive) | > 100 µM (inactive) | > 100 µM (inactive) | > 100 µM (inactive) | > 100 µM (inactive) | > 100 µM (inactive) |  | > 100 µM (inactive) |  | > 100 µM (inactive) |  | > 100 µM (inactive) | > 100 µM (inactive) | > 100 µM (inactive) | > 100 µM
17 | O=C(Nc1nc2ccccc2n1Cc1ccc(Cl)cc1)NC12CC3CC(CC(C3)C1)C2 | 20.1 µM (inactive) | 24.9 µM (inactive) | 24.3 µM (inactive) | > 100 µM (inactive) | 76.7 µM (inactive) | 4.12 µM (inactive) | 16.1 µM (inactive) | > 100 µM (inactive) | 10.9 µM (inactive) | 36.2 µM (inactive) | 19.9 µM (inactive) | 16 µM (inactive) | 20.5 µM (inactive) | 20.7 µM (inactive) | 71.6 µM
18 | N#C/N=C(\NCCc1c[nH]c2ccccc12)NCc1ccccc1 | 26.8 µM (inactive) | 68.9 µM (inactive) | > 100 µM (inactive) | 32.5 µM (inactive) | 29.9 µM (inactive) | > 100 µM (inactive) |  | 27.5 µM (inactive) | 36 µM (inactive) | 61 µM (inactive) |  | 80.7 µM (inactive) | > 100 µM (inactive) | 35.2 µM (inactive) | 49.4 µM
19 | CSC1(C)CC2C(CC1N1CCOCC1)C2(C)C (stereo not drawn) | > 100 µM (inactive) |  | > 100 µM (inactive) | > 100 µM (inactive) | > 100 µM (inactive) | > 100 µM (inactive) |  | > 100 µM (inactive) | > 100 µM (inactive) | > 100 µM (inactive) | 78.2 µM (inactive) | > 100 µM (inactive) |  | > 100 µM (inactive) | > 100 µM
20 | O=c1c(O)cccn1C1OC(CO)C(O)C1O (stereo not drawn) | > 100 µM (inactive) | > 100 µM (inactive) |  | > 100 µM (inactive) | > 100 µM (inactive) | > 100 µM (inactive) | > 100 µM (inactive) |  |  | > 100 µM (inactive) | > 100 µM (inactive) | > 100 µM (inactive) | > 100 µM (inactive) | > 100 µM (inactive) | > 100 µM
21 | CC(=O)OC1CC2C(C)(C)C(=O)C=C[C@]2(C)C2CCC3(C)C(c4ccoc4)C(=O)[C@H]4O[C@]43[C@]12C (stereo partly drawn) | 17.4 µM (inactive) | 23.3 µM (inactive) | 20 µM (inactive) | 17.1 µM (inactive) | 15.5 µM (inactive) | 38.9 µM (inactive) | 16.4 µM (inactive) | 20.2 µM (inactive) |  | > 100 µM (inactive) | 12.6 µM (inactive) | 15.5 µM (inactive) | 19.1 µM (inactive) | 18.6 µM (inactive) | 15.1 µM

Source: ChEMBL document CHEMBL1201862, “PubChem BioAssay data set” (2004)
